Results on 1 compound are retold here after patent US20050124554A1, “Spermidine derivatives for the treatment of chronic neurodegenerative diseases” (priority 2002, published 2005).

In the test the test system is organotypic hippocampal slice cultures (CA1 pyramidal cell layer). The experiment in a line: Experimental ischaemia (oxygen glucose deprivation), cell death by PI fluorescence. The format is cell-based, Wistar rat. As for the experimental part: Organotypic hippocampal slice cultures were prepared according to established methods (Pringle et al. (1997), Brain Res., 755, 36-46). In brief, Wistar rat pups (8-11 days old) were decapitated and the hippocampus rapidly dissected into ice-cold Gey's balanced salt solution (Gibco Life Technologies, Paisley, UK) supplemented with 4.5 mg ml^−1 glucose. Slices were separated and plated onto Millicell CM culture inserts (4 per well) and maintained at 37° C. and 5% CO2 for 14 days. Maintenance medium consisted of 25% heat-inactivated horse serum, 25% Hank's balanced salt solution (HBSS) and 50% minimum essential medium with added Earle's salts MM, ICN Biomedicals, Basingstoke, UK) supplemented with 1 mM glutamine and 4.5 mg ml^−1 glucose. Medium was changed every 3-4 days.
Experimental ischaemia or oxygen glucose deprivation was performed as described previously (Pringle et al. (1996), Stroke, 27, 2124-2130). Briefly, cultures were transferred to serum-free media (SFM, 75% MEM, 25% HDSS supplemented with 1 mM glutamine and 4.5 mg ml^−1 glucose) containing 5 μg ml^−1 of the fluorescent exclusion dye propidium iodide (PI). Cultures were allowed to equilibrate in SFM for 30 min prior to imaging, with or without L-Arg3,4. PI fluorescence was detected using a Leica inverted microscope as described below. Any cultures in which PI fluorescence was detected at this stage were excluded from further study. Ischaemia was induced by transferring cultures to glucose-free media (MEM with Earl's salts without glucose and supplemented with 1 mM glutamine) saturated with 95% N2 and 5% CO2. Culture plates (without lids) were then sealed into an airtight chamber (Billups-Rothenberg, Del Mar, Calif.) gassed with 95% N2 and 5% CO2 at 10 L min^−1 for 10 min before being sealed and placed at 37° C. for 50 min. At the end of the ischaemia, cultures were returned to normoxic SFM+PI, with or without compound at the indicated concentrations, and placed back in the incubator for 24 h.
Neuronal damage was assessed as described previously (Pringle et al. (1996), Stroke, 27, 2124-2130; Pringle et al. (1997), Brain Res., 755, 36-46). Light transmission images were captured prior to the induction of injury, and PI fluorescence images recorded at the end of the 24 h post-injury recovery period. All images were captured on an inverted Leica DM-IRBE epifluorescence microscope (Milton Keynes, UK) fitted with a 100 W Hg lamp and standard rhodamine optics (excitation 510-560 nm; dichroic mirror […]; emission>590 nm). Images were acquired with a 5×NA 0.12 lens and a cooled Hamamatsu digital camera and digitised at 12 bit resolution for analysis in OpenLab 2.1 (Improvision, Coventry, UK) running on a Macintosh G4/400. The area of the CA1 or CA3 cell layer was determined from the transmission image, and the area of PI fluorescence in that cell layers was measured using the density slice function within OpenLab. Neuronal damage was expressed as a percentage of the area in which PI fluorescence was detected above threshold within a cell layer divided by the total area of that cell layer. Protection was calculated as the difference between the damage for a given well and the average damage in untreated controls divided by the average damage in untreated controls. Groups were compared against corresponding control groups using the two tailed Student's t-test with significance indicated as * for P<0.05, and ** for P<0.01. Data is presented as mean±s.e.mean.

Where [1] appears, read: 300 μM applied 0 min post-injury.
Where [2] appears, read: 300 μM applied 10 min post-injury.
[3] abbreviates: 300 μM applied 60 min post-injury.

Turning to `N=C(N)NCCCC(N)C(=O)NCCCNCCCCN` [L-Arg3,4, L-arginyl-3,4-spermidine], the damage entry is recorded as “did not reduce damage” (300 nM post-injury, dose study); 19±5% (3 μM post-injury, dose study); 11±3% (30 μM post-injury, dose study); 23±3% under setting [1]; 15±2% under setting [2]; 28±4% (300 μM applied 30 min post-injury). Besides, the damage was 26±3% under setting [3] and 23±3% (300 μM post-injury, dose study). In addition, the protection amounted to 43% (3 μM post-injury, dose study); 67% (30 μM post-injury, dose study); 40% under setting [1]; 59% under setting [2]; 26% (300 μM applied 30 min post-injury, not statistically significant); 30% under setting [3]. The compound further showed a protection (300 μM post-injury, dose study) of 32%; a protection (300 μM pre-, during, and post-ischaemia (PDP)) of 39%. Further, the “delay of administration post-ischaemia at which still neuroprotective (therapeutic window)” value (300 μM) is given as “up to 60 min”. Besides, the “neurodegeneration (PI area as % of cell layer)” value (300 μM pre-, during, and post-ischaemia (PDP), 1 h ischaemia, 24 h) is listed as 23±4%.
